Laboratory results taken from the supplement of paper PMC10307832.

What was measured:
Assay in all cases: relative viability (nuclei count vs DMSO), 5 days (fraction); higher = more cells survive
NCI-H1793 = system: NCI-H1793
Outline: (§1)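 One day after seeding in 1536-well plates, lung cancer cell lines were dosed by pin tool. Dosing was either single-drug or a fixed anchor-drug dose plus five library-drug doses (not always all listed) in √10 steps. After 5 days, nuclei were stained in one fix-and-stain step and counted on 4× images, and relative viability is the nuclei count of treated wells over that of vehicle wells, given as the median of duplicate plates.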

LXF-289 = system: LXF-289
Outline: as §1

NCI-H1395 = system: NCI-H1395
Outline: as §1

NCI-H2228 = system: NCI-H2228
Outline: as §1

HOP-62 = system: HOP-62
Outline: as §1

LCLC-97TM1 = system: LCLC-97TM1
Outline: as §1

HCC-827 = system: HCC-827
Outline: as §1

NCI-H1437 = system: NCI-H1437
Outline: as §1

NCI-H1650 = system: NCI-H1650
Outline: as §1

HCC-44 = system: HCC-44
Outline: as §1

RERF-LC-KJ = system: RERF-LC-KJ
Outline: as §1

NCI-H322M = system: NCI-H322M
Outline: as §1

NCI-H2087 = system: NCI-H2087
Outline: as §1

NCI-H1944 = system: NCI-H1944
Outline: as §1

SK-LU-1 = system: SK-LU-1
Outline: as §1

CAL-12T = system: CAL-12T
Outline: as §1

LCLC-103H = system: LCLC-103H
Outline: as §1

NCI-H3122 = system: NCI-H3122
Outline: as §1

BEN = system: BEN
Outline: as §1

NCI-H647 = system: NCI-H647
Outline: as §1

201T = system: 201T
Outline: as §1

NCI-H2405 = system: NCI-H2405
Outline: as §1

`CC1(C)CCC(c2ccc(Cl)cc2)=C(CN2CCN(c3ccc(C(=O)NS(=O)(=O)c4ccc(N[C@H](CCN5CCOCC5)CSc5ccccc5)c(S(=O)(=O)C(F)(F)F)c4)cc3)CC2)C1` [Navitoclax] + Nc1nc2[nH]cc(CCc3ccc(C(=O)N[C@@H](CCC(=O)O)C(=O)O)cc3)c2c(=O)[nH]1 [Pemetrexed] (partner 0.2 µM) showed a relative viability (NCI-H1793; first compound 0.005 µM) of 0.72, a relative viability (NCI-H1793; first compound 0.01581 µM) of 1.09 and a relative viability (NCI-H1793; first compound 0.1581 µM) of 0.828. The relative viability (NCI-H1793; first compound 0.5 µM) was 0.643, the relative viability (LXF-289; first compound 0.005 µM) was 0.85 and the relative viability (LXF-289; first compound 0.01581 µM) was 0.914. For the same compound, the relative viability (LXF-289; first compound 0.05 µM) was 0.865, the relative viability (LXF-289; first compound 0.1581 µM) was 0.926 and the relative viability (LXF-289; first compound 0.5 µM) was 0.852. For the same compound, the relative viability (NCI-H1395; first compound 0.005 µM) was 0.763, the relative viability (NCI-H1395; first compound 0.01581 µM) was 0.853 and the relative viability (NCI-H1395; first compound 0.05 µM) was 0.94. The relative viability (NCI-H1395; first compound 0.1581 µM) was 0.86, the relative viability (NCI-H1395; first compound 0.5 µM) was 0.913 and the relative viability (NCI-H2228; first compound 0.005 µM) was 0.314. It also gave a relative viability (NCI-H2228; first compound 0.01581 µM) of 0.306, a relative viability (NCI-H2228; first compound 0.1581 µM) of 0.336 and a relative viability (NCI-H2228; first compound 0.5 µM) of 0.31. For the same compound, the relative viability (HOP-62; first compound 0.005 µM) was 0.326, the relative viability (HOP-62; first compound 0.01581 µM) was 0.299 and the relative viability (HOP-62; first compound 0.05 µM) was 0.323. For the same compound, the relative viability (HOP-62; first compound 0.1581 µM) was 0.27, the relative viability (HOP-62; first compound 0.5 µM) was 0.27 and the relative viability (LCLC-97TM1; first compound 0.005 µM) was 0.182. For the same compound, the relative viability (LCLC-97TM1; first compound 0.01581 µM) was 0.191, the relative viability (LCLC-97TM1; first compound 0.05 µM) was 0.158 and the relative viability (LCLC-97TM1; first compound 0.1581 µM) was 0.156. It also gave a relative viability (LCLC-97TM1; first compound 0.5 µM) of 0.204, a relative viability (HCC-827; first compound 0.005 µM) of 0.27 and a relative viability (HCC-827; first compound 0.01581 µM) of 0.261. The relative viability (HCC-827; first compound 0.05 µM) was 0.252, the relative viability (HCC-827; first compound 0.1581 µM) was 0.23 and the relative viability (HCC-827; first compound 0.5 µM) was 0.258. It also gave a relative viability (NCI-H1437; first compound 0.005 µM) of 0.287, a relative viability (NCI-H1437; first compound 0.01581 µM) of 0.336 and a relative viability (NCI-H1437; first compound 0.05 µM) of 0.282. For the same compound, the relative viability (NCI-H1437; first compound 0.1581 µM) was 0.311, the relative viability (NCI-H1437; first compound 0.5 µM) was 0.356 and the relative viability (NCI-H1650; first compound 0.005 µM) was 0.365. The relative viability (NCI-H1650; first compound 0.01581 µM) was 0.412, the relative viability (NCI-H1650; first compound 0.05 µM) was 0.298 and the relative viability (NCI-H1650; first compound 0.1581 µM) was 0.347. For the same compound, the relative viability (NCI-H1650; first compound 0.5 µM) was 0.334, the relative viability (HCC-44; first compound 0.005 µM) was 0.633 and the relative viability (HCC-44; first compound 0.01581 µM) was 0.65. It also gave a relative viability (HCC-44; first compound 0.05 µM) of 0.625, a relative viability (HCC-44; first compound 0.1581 µM) of 0.603 and a relative viability (HCC-44; first compound 0.5 µM) of 0.558. The relative viability (RERF-LC-KJ; first compound 0.005 µM) was 0.476, the relative viability (RERF-LC-KJ; first compound 0.01581 µM) was 0.38 and the relative viability (RERF-LC-KJ; first compound 0.05 µM) was 0.45. For the same compound, the relative viability (RERF-LC-KJ; first compound 0.1581 µM) was 0.484, the relative viability (RERF-LC-KJ; first compound 0.5 µM) was 0.496 and the relative viability (NCI-H322M; first compound 0.005 µM) was 0.661. For the same compound, the relative viability (NCI-H322M; first compound 0.01581 µM) was 0.651, the relative viability (NCI-H322M; first compound 0.05 µM) was 0.65 and the relative viability (NCI-H322M; first compound 0.1581 µM) was 0.651. The relative viability (NCI-H322M; first compound 0.5 µM) was 0.649, the relative viability (NCI-H2087; first compound 0.005 µM) was 0.689 and the relative viability (NCI-H2087; first compound 0.01581 µM) was 0.697. For the same compound, the relative viability (NCI-H2087; first compound 0.1581 µM) was 0.686, the relative viability (NCI-H2087; first compound 0.5 µM) was 0.675 and the relative viability (NCI-H1944; first compound 0.005 µM) was 0.611. It also gave a relative viability (NCI-H1944; first compound 0.01581 µM) of 0.623, a relative viability (NCI-H1944; first compound 0.1581 µM) of 0.597 and a relative viability (NCI-H1944; first compound 0.5 µM) of 0.534. The relative viability (SK-LU-1; first compound 0.005 µM) was 0.945, the relative viability (SK-LU-1; first compound 0.01581 µM) was 1.01 and the relative viability (SK-LU-1; first compound 0.05 µM) was 0.967. For the same compound, the relative viability (SK-LU-1; first compound 0.1581 µM) was 0.947, the relative viability (SK-LU-1; first compound 0.5 µM) was 0.819 and the relative viability (CAL-12T; first compound 0.005 µM) was 1.23. It also gave a relative viability (CAL-12T; first compound 0.01581 µM) of 1.34, a relative viability (CAL-12T; first compound 0.05 µM) of 1.23 and a relative viability (CAL-12T; first compound 0.1581 µM) of 1.23. The relative viability (CAL-12T; first compound 0.5 µM) was 1.25, the relative viability (LCLC-103H; first compound 0.005 µM) was 0.473 and the relative viability (LCLC-103H; first compound 0.01581 µM) was 0.425. The relative viability (LCLC-103H; first compound 0.05 µM) was 0.401, the relative viability (LCLC-103H; first compound 0.1581 µM) was 0.442 and the relative viability (LCLC-103H; first compound 0.5 µM) was 0.368. It also gave a relative viability (NCI-H3122; first compound 0.005 µM) of 0.207, a relative viability (NCI-H3122; first compound 0.01581 µM) of 0.176 and a relative viability (NCI-H3122; first compound 0.05 µM) of 0.211. For the same compound, the relative viability (NCI-H3122; first compound 0.1581 µM) was 0.183, the relative viability (NCI-H3122; first compound 0.5 µM) was 0.209 and the relative viability (BEN; first compound 0.005 µM) was 0.781. It also gave a relative viability (BEN; first compound 0.01581 µM) of 0.841, a relative viability (BEN; first compound 0.05 µM) of 0.74 and a relative viability (BEN; first compound 0.1581 µM) of 0.803. It also gave a relative viability (BEN; first compound 0.5 µM) of 0.418, a relative viability (NCI-H647; first compound 0.005 µM) of 0.166 and a relative viability (NCI-H647; first compound 0.01581 µM) of 0.175. It also gave a relative viability (NCI-H647; first compound 0.05 µM) of 0.163, a relative viability (NCI-H647; first compound 0.1581 µM) of 0.14 and a relative viability (NCI-H647; first compound 0.5 µM) of 0.128. The relative viability (201T; first compound 0.005 µM) was 0.299, the relative viability (201T; first compound 0.01581 µM) was 0.31 and the relative viability (201T; first compound 0.05 µM) was 0.34. The relative viability (201T; first compound 0.1581 µM) was 0.321, the relative viability (201T; first compound 0.5 µM) was 0.357 and the relative viability (NCI-H2405; first compound 0.005 µM) was 1.02. The relative viability (NCI-H2405; first compound 0.01581 µM) was 1.07, the relative viability (NCI-H2405; first compound 0.05 µM) was 1.11 and the relative viability (NCI-H2405; first compound 0.1581 µM) was 0.994. It also gave a relative viability (NCI-H2405; first compound 0.5 µM) of 0.896.
